Source: patent publication US9957246B2, “Prodrugs of tetrahydrocannabinol, compositions comprising prodrugs of tetrahydrocannabinol and methods of using the same” (Zynerba Pharmaceuticals, Inc., priority 2007, dated 2018)

Assays:
[1] = In vitro human skin permeation, flow-through diffusion cells; conditions: analyte: THC or intact prodrug as applied
[2] = Plasma stability of prodrugs (bioconversion to parent drug); type: in vitro ADME
Description: Approximately 1 mg/mL of stock solution of each prodrug was prepared in 100 μL of ethanol and 900 μL of acetonitrile. Next, 10 μL of stock was spiked into 1 mL of plasma and vortexed. The samples were kept sealed in an amber vial and samples were obtained to analyze for bioconversion to parent drug.
An approximated 1 mg/mL stock solution of each prodrug was prepared in 100 μL of ethanol and 900 μL of acetonitrile. Next, 10 μL of stock was spiked into 1 mL of plasma and vortexed. The samples were kept sealed in an amber vial and samples were obtained to analyze for bioconversion to parent drug.
Approximately 1 mg/mL of stock solution of each prodrug was prepared in 100 μL of ethanol and 900 μL of acetonitrile. Ten μL of stock was spiked into 1 mL of plasma and vortexed. The samples were kept sealed in an amber vial and samples were obtained to analyze for bioconversion to parent drug.

[3] = Table 18, 90:8:2 PG:H2O:IPM donor solution
[4] = Table 13, gel formulation with 40% aqueous PEG 400 receiver fluid

| SMILES | 24 h cumulative amt [1, 3] | 24 h skin conc [1, 3] | Flux [1, 3] | Lag time [1, 3] | % Prodrug at time (h) ([2]; Table 15, 0.1 h) | % Prodrug at time (h) ([2]; Table 15, 0.5 h) | 24 h skin conc [1, 4] | 24 h skin conc ([1]; Table 20, 90:8:2 PG:H2O:IPM donor solution (saturated)) | % Prodrug at time (h) ([2]; Table 14, 0 h) | % Prodrug at time (h) ([2]; Table 14, 1 h) | % Prodrug at time (h) ([2]; Table 14, 21 h) | % Prodrug at time (h) ([2]; Table 14, 24 h) | 24 h cumulative amt [1, 4] | Flux [1, 4] | Lag time [1, 4] |
| --- | --- | --- | --- | --- | --- | --- | --- | --- | --- | --- | --- | --- | --- | --- | --- |
| CCCCCc1cc(OC(=O)OC[C@@H](O)CO)c2c(c1)OC(C)(C)[C@@H]1CCC(C)=C[C@@H]21 [ALL00138, Δ^9-Tetrahydrocannabinol (S)-2,3-dihydroxypropyl carbonate] | 18.2 ± 1.4 nmol | 7.2 ± 4.8 µmol/g | 1.0 ± 0.0 nmol/cm^2/h | 5.9 ± 1.4 h | 30% | 0% |  |  |  |  |  |  |  |  |  |
| CCCCCc1cc(OC(=O)CCN(C)C)c2c(c1)OC(C)(C)[C@@H]1CCC(C)=C[C@@H]21 [ALL00153, Δ^9-Tetrahydrocannabinol 3-(dimethylamino)propionate] |  |  |  |  |  |  | 1.6 ± 0.03 µmol/g | 0.6 ± 0.1 µmol/g | 98% | 72% | 48% | 41% |  |  |  |
| CCCCCc1cc(OC(=O)CO)c2c(c1)OC(C)(C)[C@@H]1CCC(C)=C[C@@H]21 [ALL00154, Δ^9-Tetrahydrocannabinol glycolate] |  |  |  |  |  |  | 2.6 ± 1.5 µmol/g |  | 95% | 0% | 0% | 0% | 39.2 nmol | 3.23 nmol/cm^2/h | 12.2 h |
